Columns and labels:
[1] = system: OVCAR8; assay: drug sensitivity score (DSS2) on cancer cell count; higher = more sensitive; extreme values may be limits of the assay; settings: 72 h
Procedure, shortened: (§1)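 Ovarian cancer cells grown alone or 1:1 with lung or skin fibroblasts in direct co-culture were treated for 72 h on 384-well plates carrying 528 approved and investigational compounds at 5 concentrations. Fixed cells were stained for CK8/18 with Hoechst and imaged to count cancer cells. A drug sensitivity score was then derived in Breeze from logistic curve fits.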

[2] = system: KURAMOCHI; assay: as above; settings: 72 h
Procedure, shortened: as §1

[3] = co-cultured fibroblast: BJHTERT
[4] = co-cultured fibroblast: none (monoculture)

Structure (SMILES)	drug sensitivity score [1, 3]	drug sensitivity score ([1]; co-cultured fibroblast: WI38)	drug sensitivity score [1, 4]	drug sensitivity score [2, 3]	drug sensitivity score ([2]; co-cultured fibroblast: WI38)	drug sensitivity score [2, 4]
CC(=O)O[C@H]1C(=O)[C@@]2(C)[C@H]([C@H](OC(=O)c3ccccc3)[C@]3(O)C[C@H](OC(=O)[C@H](O)[C@@H](NC(=O)c4ccccc4)c4ccccc4)C(C)=C1C3(C)C)[C@]1(OC(C)=O)CO[C@@H]1C[C@@H]2O [Paclitaxel]	29.6 DSS	30.9 DSS	24 DSS	23.2 DSS	24.5 DSS	16.1 DSS
C1=N/C2=N/c3ccc(OCCN4CCCC4)c(c3)COC/C=C/COCc3cccc(c3)C(=C1)N2 [Pacritinib]	9.5 DSS	5.6 DSS	7.7 DSS	8.2 DSS	8.6 DSS	4.4 DSS
CC(=O)c1c(C)c2cnc(Nc3ccc(N4CCNCC4)cn3)nc2n(C2CCCC2)c1=O [Palbociclib]	6.6 DSS	0.3 DSS	3.9 DSS	6.2 DSS	7.5 DSS	13.9 DSS
COc1ccc(COc2cc3oc(=O)c4cc(C(C)O)ccc4c3cc2OC)cc1 (configuration not stated) [Palomid-529]	1.1 DSS	1 DSS	0 DSS	0 DSS	0 DSS	0 DSS
Cc1[nH]c2ccccc2c1CCNCc1ccc(/C=C/C(=O)NO)cc1 [Panobinostat]	28.1 DSS	20.1 DSS	26.4 DSS	14.8 DSS	19.4 DSS	21.8 DSS
Cc1ccc(Nc2nccc(N(C)c3ccc4c(C)n(C)nc4c3)n2)cc1S(N)(=O)=O [Pazopanib]	0 DSS	3.5 DSS	0 DSS	2 DSS	2 DSS	5.9 DSS
Nc1nc2[nH]cc(CCc3ccc(C(=O)N[C@@H](CCC(=O)O)C(=O)O)cc3)c2c(=O)[nH]1 [Pemetrexed]	16.4 DSS	19.3 DSS	25.5 DSS	10.1 DSS	16 DSS	13.6 DSS
OC[C@H]1O[C@@H](n2cnc3c2N=CNC[C@H]3O)C[C@@H]1O [Pentostatin]	0 DSS	2.8 DSS	0 DSS	0 DSS	0 DSS	0 DSS
CCCCCCCCCCCCCCCCCCOP(=O)([O-])OC1CC[N+](C)(C)CC1 [Perifosine]	0 DSS	0 DSS	0 DSS	0 DSS	0 DSS	0 DSS
NS(=O)(=O)OC[C@@H]1C[C@@H](n2ccc3c(N[C@H]4CCc5ccccc54)ncnc32)C[C@@H]1O [Pevonedistat]	20.9 DSS	12.5 DSS	26.4 DSS	14 DSS	19.1 DSS	18.2 DSS
FC(F)(F)c1ccc(CNc2ccc(Cc3c[nH]c4ncc(Cl)cc34)cn2)cn1 [Pexidartinib]	0 DSS	0.1 DSS	0.7 DSS	0 DSS	1.4 DSS	12.1 DSS
CS(=O)(=O)N1CCN(Cc2cc3nc(-c4cccc5[nH]ncc45)nc(N4CCOCC4)c3s2)CC1 [Pictilisib]	6.7 DSS	5.4 DSS	7.9 DSS	15 DSS	12.1 DSS	18.2 DSS
CC[C@@H]1C(=O)OC[C@@H]1Cc1cncn1C [Pilocarpine]	0 DSS	19.4 DSS	0 DSS	0 DSS	0 DSS	0 DSS
CC(C)N(C[C@H]1O[C@@H](n2cnc3c(N)ncnc32)[C@H](O)[C@@H]1O)[C@H]1C[C@@H](CCc2nc3cc(C(C)(C)C)ccc3[nH]2)C1 [Pinometostat]	0 DSS	0 DSS	0 DSS	0 DSS	0 DSS	0 DSS
Cc1ccc(=O)n(-c2ccccc2)c1 [Pirfenidone]	0 DSS	0.7 DSS	0 DSS	1.8 DSS	0 DSS	0 DSS
NCCNc1ccc(NCCN)c2c1C(=O)c1ccncc1C2=O [Pixantrone]	1.7 DSS	0 DSS	0 DSS	0 DSS	0.1 DSS	9.4 DSS
c1cc(CN2CCCNCCNCCCNCC2)ccc1CN1CCCNCCNCCCNCC1 [Plerixafor]	0.5 DSS	0 DSS	0.3 DSS	0 DSS	0 DSS	0.6 DSS
Nc1cccc2c1C(=O)N(C1CCC(=O)NC1=O)C2=O (configuration not stated) [Pomalidomide]	0 DSS	0 DSS	0 DSS	0 DSS	0 DSS	0 DSS
Cc1ccc(C(=O)Nc2ccc(CN3CCN(C)CC3)c(C(F)(F)F)c2)cc1C#Cc1cnc2cccnn12 [Ponatinib]	3.5 DSS	6.5 DSS	3.1 DSS	8.3 DSS	6.3 DSS	21.9 DSS
C=CC(=O)N1CCC(Oc2cc3c(Nc4ccc(Cl)c(Cl)c4F)ncnc3cc2OC)CC1 [Poziotinib]	4 DSS	0.2 DSS	0.3 DSS	4.4 DSS	7.9 DSS	3 DSS
CCCCc1nc2cc(/C=C/C(=O)NO)ccc2n1CCN(CC)CC [Pracinostat]	23.1 DSS	20.4 DSS	25.5 DSS	15.7 DSS	20.4 DSS	19.8 DSS
CC[C@H](C)C(=O)O[C@H]1C[C@H](O)C=C2C=C[C@H](C)[C@H](CC[C@@H](O)C[C@@H](O)CC(=O)O)[C@H]21 [Pravastatin]	0 DSS	1.9 DSS	0 DSS	0 DSS	0 DSS	0 DSS
C[C@]12C=CC(=O)C=C1CC[C@@H]1[C@@H]2[C@@H](O)C[C@@]2(C)[C@H]1CC[C@]2(O)C(=O)CO [Prednisolone]	0.3 DSS	0 DSS	0 DSS	0 DSS	0 DSS	0 DSS
COc1cccc(OCCCN)c1-c1cc(Nc2cnc(C#N)cn2)n[nH]1 [Prexasertib]	35 DSS	33.7 DSS	29.8 DSS	25.7 DSS	23.7 DSS	30.7 DSS
Cn1cc(CNCC2CCN(c3ncc(C(=O)NO)cn3)CC2)c2ccccc21 [Quisinostat]	22.6 DSS	15.3 DSS	22.4 DSS	15 DSS	17 DSS	18.9 DSS
CC(C)(C)c1cc(NC(=O)Nc2ccc(-c3cn4c(n3)sc3cc(OCCN5CCOCC5)ccc34)cc2)no1 [Quizartinib]	3.6 DSS	6.2 DSS	0 DSS	0 DSS	0 DSS	0 DSS

Structure (SMILES)	drug sensitivity score [1, 3]	drug sensitivity score ([1]; co-cultured fibroblast: WI38)	drug sensitivity score [1, 4]	drug sensitivity score [2, 3]	drug sensitivity score ([2]; co-cultured fibroblast: WI38)	drug sensitivity score [2, 4]
Nc1cc(F)ccc1NC(=O)/C=C/c1cnn(C/C=C/c2ccccc2)c1 [RGFP966]	1.6 DSS	0.6 DSS	4.4 DSS	3.9 DSS	6 DSS	4 DSS
COC(=O)c1ccc([C@H]2c3[nH]c4ccccc4c3C[C@H](C(=O)OC)N2C(=O)CCl)cc1 [RSL3]	0 DSS	0 DSS	0 DSS	0 DSS	0 DSS	2.5 DSS
Cc1cnc(NC(=O)Nc2cc(Br)c(C)cc2OC[C@@H]2CNCCO2)cn1 [Rabusertib]	0.2 DSS	0 DSS	0 DSS	0.4 DSS	0 DSS	0 DSS
Cc1cn(-c2cc(NC(=O)c3ccc(C)c(Nc4nccc(-c5cnccn5)n4)c3)cc(C(F)(F)F)c2)cn1 [Radotinib]	0 DSS	6.2 DSS	1.2 DSS	0 DSS	0 DSS	0 DSS
CC(C)(C)Cn1c(N)nc2ccc(-c3[nH]c(C(C)(C)C)nc3-c3ccc(F)cc3)nc21 [Ralimetinib]	0 DSS	0 DSS	2.5 DSS	10.8 DSS	1.7 DSS	0 DSS
O=C(c1ccc(OCCN2CCCCC2)cc1)c1c(-c2ccc(O)cc2)sc2cc(O)ccc12 [Raloxifene]	2.5 DSS	0 DSS	0 DSS	4 DSS	0 DSS	0 DSS
Cc1nc(=O)c2cc(CN(C)c3ccc(C(=O)N[C@@H](CCC(=O)O)C(=O)O)s3)ccc2[nH]1 [Raltitrexed]	16.4 DSS	18.3 DSS	15.9 DSS	11.2 DSS	16.8 DSS	10.4 DSS
Cn1nccc1Nc1nccc(-c2ccn([C@H](CO)c3ccc(Cl)c(F)c3)c(=O)c2)n1 [Ravoxertinib]	2.2 DSS	4.3 DSS	4.9 DSS	3.6 DSS	3.2 DSS	3.3 DSS
CNC(=O)c1cc(Oc2ccc(NC(=O)Nc3ccc(Cl)c(C(F)(F)F)c3)c(F)c2)ccn1 [Regorafenib]	5.4 DSS	3.3 DSS	5.5 DSS	5.5 DSS	3.6 DSS	3.2 DSS
CCOC(=O)C1=CCCC[C@H]1S(=O)(=O)Nc1ccc(F)cc1Cl [Resatorvid]	0 DSS	0 DSS	0 DSS	0 DSS	0.2 DSS	0 DSS
CCOCc1nc2c(N)nc3ccccc3c2n1CC(C)(C)O [Resiquimod]	0.3 DSS	0 DSS	0 DSS	0 DSS	0 DSS	6.7 DSS
CN(C)Cc1ccc(S(=O)(=O)n2ccc(/C=C/C(=O)NO)c2)cc1 [Resminostat]	18.3 DSS	12.8 DSS	15 DSS	11 DSS	10 DSS	10.4 DSS
CN(C)C(=O)c1cc2cnc(Nc3ccc(N4CCNCC4)cn3)nc2n1C1CCCC1 [Ribociclib]	3.9 DSS	0 DSS	0 DSS	0 DSS	3.9 DSS	5.2 DSS
CO[C@H]1C[C@@H]2CC[C@@H](C)[C@@](O)(O2)C(=O)C(=O)N2CCCC[C@H]2C(=O)O[C@H]([C@H](C)C[C@@H]2CC[C@@H](OP(C)(C)=O)[C@H](OC)C2)CC(=O)[C@H](C)/C=C(\C)[C@@H](O)[C@@H](OC)C(=O)[C@H](C)C[C@H](C)/C=C/C=C/C=C/1C [Ridaforolimus]	7.1 DSS	0 DSS	9.8 DSS	11.6 DSS	13.4 DSS	8.1 DSS
COc1cc(OC)c(/C=C/S(=O)(=O)Cc2ccc(OC)c(NCC(=O)O)c2)c(OC)c1 [Rigosertib]	27.7 DSS	28.9 DSS	30.4 DSS	24 DSS	24.1 DSS	28.8 DSS
C[C@H]1CNCCCN1S(=O)(=O)c1cccc2cncc(F)c12 [Ripasudil]	3 DSS	6.9 DSS	0.2 DSS	1.8 DSS	0 DSS	0.4 DSS
C=CC(=O)Nc1cccc(Nc2nc(Nc3ccc(N4CCN(C(C)=O)CC4)cc3OC)ncc2C(F)(F)F)c1 [Rociletinib]	6.7 DSS	4.1 DSS	8.1 DSS	5.8 DSS	4.6 DSS	3.7 DSS
O=C(CCCCCCNC(=O)c1cnc(N(c2ccccc2)c2ccccc2)nc1)NO [Rocilinostat]	10.4 DSS	5.2 DSS	18.6 DSS	6.7 DSS	6.9 DSS	7.1 DSS
C/C=C1\NC(=O)[C@H]2CSSCC/C=C/[C@H](CC(=O)N[C@H](C(C)C)C(=O)N2)OC(=O)[C@H](C(C)C)NC1=O [Romidepsin]	29.2 DSS	26.5 DSS	30.4 DSS	28 DSS	30 DSS	32.7 DSS
Cc1nc(C(=O)NCC(=O)O)c(O)c2ccc(Oc3ccccc3)cc12 [Roxadustat]	0 DSS	0 DSS	0 DSS	3 DSS	0 DSS	0 DSS
CN(C)C[C@@H]1CCn2cc(c3ccccc32)C2=C(C(=O)NC2=O)c2cn(c3ccccc23)CCO1 [Ruboxistaurin]	5.5 DSS	3.8 DSS	6.9 DSS	8.7 DSS	6.5 DSS	14.9 DSS
CNCc1ccc(-c2[nH]c3cc(F)cc4c3c2CCNC4=O)cc1 [Rucaparib]	8.5 DSS	3.5 DSS	6.5 DSS	3.7 DSS	5.3 DSS	14.1 DSS
N#CC[C@H](C1CCCC1)n1cc(-c2ncnc3[nH]ccc23)cn1 [Ruxolitinib]	1.3 DSS	2.7 DSS	2.5 DSS	0 DSS	0 DSS	0 DSS
CC(C)N(CCCNC(=O)Nc1ccc(C(C)(C)C)cc1)C[C@H]1O[C@@H](n2cc(Br)c3c(N)ncnc32)[C@H](O)[C@@H]1O [SGC0946]	0 DSS	0 DSS	0 DSS	0.1 DSS	3.3 DSS	0 DSS
COc1ccc(CCc2nc3cc(-c4c(C)noc4C)ccc3n2C[C@H](C)N2CCOCC2)cc1Cl [SGC-CBP30]	9.9 DSS	1.7 DSS	4.5 DSS	5.7 DSS	1.3 DSS	3.2 DSS
CN1CCC(CNc2ccc3ncc(-c4cccc(OC(F)(F)F)c4)n3n2)CC1 [SGI-1776]	8.5 DSS	4.5 DSS	5.2 DSS	7.9 DSS	6.1 DSS	7.6 DSS

Reference: the supplement of paper PMC12420376
